Values of other authors in PMC5036784 (Biophysics, 2011).
Read-outs that look alike come from different tables or passages of the source.

Details: for rate constant of membrane binding kFB / rate constant of membrane dissociation kBF: 19F NMR; for time span of the binding and dissociation: timescale

SMILES	rate constant of membrane binding kFB (ref [3])	rate constant of membrane dissociation kBF (ref [3])	time span of the binding and dissociation (ref [3])	rate constant of membrane binding kFB (303K, ref [4])	rate constant of membrane dissociation kBF (303K, ref [4])	binding free energy ΔG (ref [4])	time span of the binding and dissociation (ref [4])
O=c1[nH]cc(F)c(=O)[nH]1 [5FU, 5-fluoro-1H-pyrimidine-2,4-dione]	0.2 s⁻¹	4.1 s⁻¹	10^−1–10^0 s	–	–	–	–
Oc1ccc(C(c2ccc(O)cc2)(C(F)(F)F)C(F)(F)F)cc1 [FBPA, fluorinated bisphenol A]	–	–	–	22 to 280 s⁻¹	68 to 107 s⁻¹	-4.78 kcal/mol	10^−3–10^−2 s
